Where two headings read alike, the source gives them in different places.
Experiments:
[1] = target: T1, PDE1C (Homo sapiens (Human), UniProt Q14123); assay: biochemical; conditions: read-out: PDE1C, inhibition at 10 μM
[2] = target: PDE1B (Homo sapiens (Human), UniProt Q01064); assay: PDE1 inhibition assay (PDE1B); assay type: biochemical; conditions: 15 nM tritium labelled cAMP, 1 hr at room temperature, SPA beads
Excerpt: (§1) Table 1 lists the IC50 value for inhibition of PDE1 by the compounds of the invention. […] PDE1 assays are described in the Experimental Section.

[3] = target: PDE1A (Homo sapiens (Human), UniProt P54750); assay: biochemical; assay type: biochemical; conditions: 15 nM tritium labelled cAMP, 1 hr at room temperature, SPA beads
Sequence of PDE1A (P54750 whole entry): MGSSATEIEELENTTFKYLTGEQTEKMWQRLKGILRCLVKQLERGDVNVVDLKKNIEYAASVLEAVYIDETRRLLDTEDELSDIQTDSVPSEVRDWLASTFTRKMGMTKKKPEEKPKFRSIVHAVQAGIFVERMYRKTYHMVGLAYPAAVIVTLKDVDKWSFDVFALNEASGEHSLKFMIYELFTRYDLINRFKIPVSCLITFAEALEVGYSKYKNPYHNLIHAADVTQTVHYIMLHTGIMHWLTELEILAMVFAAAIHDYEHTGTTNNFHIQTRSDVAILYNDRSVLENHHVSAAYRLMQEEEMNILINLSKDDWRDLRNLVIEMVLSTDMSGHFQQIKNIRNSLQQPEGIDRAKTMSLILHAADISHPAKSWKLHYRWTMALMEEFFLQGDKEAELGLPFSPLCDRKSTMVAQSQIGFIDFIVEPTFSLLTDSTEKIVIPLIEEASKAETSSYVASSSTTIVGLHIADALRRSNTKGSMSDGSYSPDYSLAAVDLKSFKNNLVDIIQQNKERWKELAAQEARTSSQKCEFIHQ
Excerpt: as §1

[4] = target: T1, PDE1C; assay: biochemical; assay type: biochemical
Excerpt: as §1

[5] = 15 nM tritium labelled cAMP, 1 hr at room temperature, SPA beads

T1 sequence (Q14123 whole entry): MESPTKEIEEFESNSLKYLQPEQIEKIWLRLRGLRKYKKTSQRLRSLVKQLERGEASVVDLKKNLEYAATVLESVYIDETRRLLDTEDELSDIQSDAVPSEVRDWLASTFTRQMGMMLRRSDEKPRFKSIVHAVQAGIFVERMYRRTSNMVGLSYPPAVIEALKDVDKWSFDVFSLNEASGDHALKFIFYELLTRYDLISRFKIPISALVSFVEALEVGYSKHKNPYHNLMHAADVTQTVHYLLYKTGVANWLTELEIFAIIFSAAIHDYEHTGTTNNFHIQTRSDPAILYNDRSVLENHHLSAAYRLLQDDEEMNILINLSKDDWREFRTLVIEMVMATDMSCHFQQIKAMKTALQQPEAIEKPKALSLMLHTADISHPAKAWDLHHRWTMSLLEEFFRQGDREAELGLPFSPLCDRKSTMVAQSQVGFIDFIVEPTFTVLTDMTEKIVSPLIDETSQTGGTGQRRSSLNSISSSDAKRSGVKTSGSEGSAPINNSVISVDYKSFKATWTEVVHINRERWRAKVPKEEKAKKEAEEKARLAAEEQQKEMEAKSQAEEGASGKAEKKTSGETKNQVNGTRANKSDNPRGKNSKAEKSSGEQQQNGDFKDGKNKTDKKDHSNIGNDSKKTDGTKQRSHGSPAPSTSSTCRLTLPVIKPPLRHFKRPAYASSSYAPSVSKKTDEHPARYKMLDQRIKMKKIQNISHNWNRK
Sequence of PDE1B (Q01064 whole entry): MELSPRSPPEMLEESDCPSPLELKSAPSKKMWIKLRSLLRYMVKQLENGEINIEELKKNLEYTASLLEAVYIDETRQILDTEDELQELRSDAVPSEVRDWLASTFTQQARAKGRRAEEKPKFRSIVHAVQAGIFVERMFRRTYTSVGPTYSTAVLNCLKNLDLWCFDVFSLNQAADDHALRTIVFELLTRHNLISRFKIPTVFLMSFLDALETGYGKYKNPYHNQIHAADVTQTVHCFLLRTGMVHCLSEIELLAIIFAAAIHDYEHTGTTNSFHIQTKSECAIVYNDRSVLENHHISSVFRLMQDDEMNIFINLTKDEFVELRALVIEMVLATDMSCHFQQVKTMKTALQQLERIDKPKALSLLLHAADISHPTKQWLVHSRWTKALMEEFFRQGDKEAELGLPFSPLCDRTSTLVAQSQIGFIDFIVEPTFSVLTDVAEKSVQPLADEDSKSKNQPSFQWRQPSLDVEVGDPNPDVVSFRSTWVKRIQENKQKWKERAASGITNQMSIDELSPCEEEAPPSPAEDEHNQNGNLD

Row | SMILES | inhibition at 10 µM [1] [%] | IC50 ([2]; PDE1B, IC50 (nM)) [nM] | IC50 [3] [nM] | IC50 ([2]; read-out: PDE1B, IC50) [nM] | IC50 [4, 5] [nM] | IC50 [4] [nM]
1 | CCOc1ncccc1-c1cc(NC(C)c2cnn(C)c2)c2c(cnn2C)n1 (racemic) [Example 15, 5-(2-ethoxypyridin-3-yl)-1-methyl-N-(1-(1-methyl-1H-pyrazol-4-yl)ethyl)-1H-pyrazolo[4,3-b]pyridin-7-amine] | 36 | 200 | 820 | – | – | –
2 | CCOc1ncccc1-c1cc(NCc2ccc(C)cc2)c2c(cnn2C(C)C)n1 [Example 24, 5-(2-ethoxy-3-pyridyl)-1-isopropyl-N-(p-tolylmethyl)pyrazolo[4,3-b]pyridin-7-amine] | – | – | 380 | 160 | 1200 | –
3 | CCCn1ncc2nc(-c3cccnc3OCC)cc(NCc3cnn(C)c3)c21 [Example 13, 5-(2-ethoxy-3-pyridyl)-N-[(1-methylpyrazol-4-yl)methyl]-1-propyl-pyrazolo[4,3-b]pyridin-7-amine] | – | – | 90 | 15 | 340 | –
4 | CCOc1ncccc1-c1cc(NCc2cccc(OC)n2)c2c(n1)c(C)nn2C(C)C [Example 102, 5-(2-ethoxy-3-pyridyl)-1-isopropyl-N-[(6-methoxy-2-pyridyl)methyl]-3-methyl-pyrazolo[4,3-b]pyridin-7-amine] | – | – | 8 | 0.73 | 34 | –
5 | CCNc1ncccc1-c1cc(NCc2cnn(C)c2)c2c(n1)c(C)nn2C(C)C [Example 79, 5-(2-(ethylamino)pyridin-3-yl)-1-isopropyl-3-methyl-N-((1-methyl-1H-pyrazol-4-yl)methyl)-1H-pyrazolo[4,3-b]pyridin-7-amine] | – | – | 230 | 31 | 260 | –
6 | COc1ccc(CNc2cc(-c3cccnc3OC)nc3c(C)nn(C(C)C)c23)cn1 [Example 96, 1-isopropyl-5-(2-methoxy-3-pyridyl)-N-[(6-methoxy-3-pyridyl)methyl]-3-methyl-pyrazolo[4,3-b]pyridin-7-amine] | – | – | 18 | 3.8 | 5.3 | –
7 | CCOc1ncccc1-c1cc(NCc2nnc(C)o2)c2c(cnn2C(C)CC)n1 (single isomer, unassigned) [Example 138, 5-(2-ethoxy-3-pyridyl)-N-[(5-methyl-1,3,4-oxadiazol-2-yl)methyl]-1-[1-methylpropyl]pyrazolo[4,3-b]pyridin-7-amine] | – | 6.8 | 93 | – | – | 180
8 | CCOc1ncccc1-c1cc(NCc2ccc(C)nc2)c2c(n1)c(C)nn2C(C)C [Example 87, 5-(2-ethoxy-3-pyridyl)-1-isopropyl-3-methyl-N-[(6-methyl-3-pyridyl)methyl]pyrazolo[4,3-b]pyridin-7-amine] | – | – | 6.3 | 0.95 | 13 | –
